PMC7917164 (Bioorganic & medicinal chemistry, 2020)
Counter-ions that a name gives are not always drawn.

Tested on: Aβ42 levels (γ-secretase modulation) in SHSY5Y-APP cells
Test: Cell-based ELISA assay for measuring extracellular Aβ42 levels
Design: species or system human
Details: not given

`COc1nc(-c2csc(Nc3cc(C(C)(C)C)nn3C(C)(C)C)n2)ccc1-n1cnc(C)c1` [Compound 55, N-(1,3-di-tert-butyl-1H-pyrazol-5-yl)-4-(6-methoxy-5-(4-methyl-1H-imidazol-1-yl)pyridin-2-yl)thiazol-2-amine] and `COc1nc(-c2csc(Nc3cc(C(F)(F)F)nn3C(C)(C)C)n2)ccc1-n1cnc(C)c1` [Compound 61, N-(1-(tert-butyl)-3-(trifluoromethyl)-1H-pyrazol-5-yl)-4-(6-methoxy-5-(4-methyl-1H-imidazol-1-yl)pyridin-2-yl)thiazol-2-amine] are within 1.5-fold of each other in “Parent Aβ42 IC50” value: 85 nM for the first, 121 nM for the second.

Compared with `COc1nc(-c2csc(Nc3c4c(nn3C(C)C)CCCC4)n2)ccc1-n1cnc(C)c1` [Compound 35, N-(2-isopropyl-4,5,6,7-tetrahydro-2H-indazol-3-yl)-4-(6-methoxy-5-(4-methyl-1H-imidazol-1-yl)pyridin-2-yl)thiazol-2-amine], `COc1nc(-c2csc(Nc3c4c(nn3C(C)C)CCC4)n2)ccc1-n1cnc(C)c1` [Compound 65, N-(2-isopropyl-2,4,5,6-tetrahydrocyclopenta[c]pyrazol-3-yl)-4-(6-methoxy-5-(4-methyl-1H-imidazol-1-yl)pyridin-2-yl)thiazol-2-amine] is 3-fold lower in “Parent Aβ42 IC50” value: 195 nM for the first, 66 nM for the second.

`COc1nc(-c2csc(Nc3c4c(nn3C3CCC3)CCCC4)n2)ccc1-n1cnc(C)c1` [Compound 37, N-(2-cyclobutyl-4,5,6,7-tetrahydro-2H-indazol-3-yl)-4-(6-methoxy-5-(4-methyl-1H-imidazol-1-yl)pyridin-2-yl)thiazol-2-amine] and `COc1nc(-c2csc(Nc3c4c(nn3C3CCC3)CCC4)n2)ccc1-n1cnc(C)c1` [Compound 67, N-(2-cyclobutyl-2,4,5,6-tetrahydrocyclopenta[c]pyrazol-3-yl)-4-(6-methoxy-5-(4-methyl-1H-imidazol-1-yl)pyridin-2-yl)thiazol-2-amine] are within 1.5-fold of each other in “Parent Aβ42 IC50” value: 99 nM for the first, 92 nM for the second.

Compared with `COc1nc(-c2csc(Nc3c4c(nn3C3CCOCC3)CCCC4)n2)ccc1-n1cnc(C)c1` [Compound 41, 4-(6-methoxy-5-(4-methyl-1H-imidazol-1-yl)pyridin-2-yl)-N-(2-(tetrahydro-2H-pyran-4-yl)-4,5,6,7-tetrahydro-2H-indazol-3-yl)thiazol-2-amine], `COc1nc(-c2csc(Nc3c4c(nn3C3CCOC3)CCCC4)n2)ccc1-n1cnc(C)c1` (racemic) [Compound 40, (+/−)-4-(6-methoxy-5-(4-methyl-1H-imidazol-1-yl)pyridin-2-yl)-N-(2-(tetrahydrofuran-3-yl)-4,5,6,7-tetrahydro-2H-indazol-3-yl)thiazol-2-amine] is 2.7-fold lower in “Parent Aβ42 IC50” value: 766 nM for the first, 289 nM for the second.

First: CCn1nc(C(C)C)cc1Nc1nc(-c2ccc(-n3cnc(C)c3)c(OC)n2)cs1 [Compound 58, N-(1-ethyl-3-isopropyl-1H-pyrazol-5-yl)-4-(6-methoxy-5-(4-methyl-1H-imidazol-1-yl)pyridin-2-yl)thiazol-2-amine]
Second: COc1nc(-c2csc(Nc3cc(C(C)(C)C)nn3C(C)C)n2)ccc1-n1cnc(C)c1 [Compound 54, N-(3-(tert-butyl)-1-isopropyl-1H-pyrazol-5-yl)-4-(6-methoxy-5-(4-methyl-1H-imidazol-1-yl)pyridine-2-yl)thiazol-2-amine]
The “Parent Aβ42 IC50” value of the first is 4.5-fold higher: 394 nM for the first, 87 nM for the second.

First: CCCn1nc2c(c1Nc1nc(-c3ccc(-n4cnc(C)c4)c(OC)n3)cs1)CCCC2 [Compound 34, 4-(6-methoxy-5-(4-methyl-1H-imidazol-1-yl)pyridin-2-yl)-N-(2-propyl-4,5,6,7-tetrahydro-2H-indazol-3-yl)thiazol-2-amine]
Second: COc1nc(-c2csc(Nc3c4c(nn3CCO)CCCC4)n2)ccc1-n1cnc(C)c1 [Compound 49, 2-(3-((4-(6-methoxy-5-(4-methyl-1H-imidazol-1-yl)pyridin-2-yl)thiazol-2-yl)amino)-4,5,6,7-tetrahydro-2H-indazol-2-yl)ethanol]
The “Parent Aβ42 IC50” value of the first is 2.4-fold lower: 148 nM for the first, 362 nM for the second.

`COc1nc(-c2csc(Nc3c4c(nn3C3CCCCC3)CCCC4)n2)ccc1-n1cnc(C)c1` [Compound 39, N-(2-cyclohexyl-4,5,6,7-tetrahydro-2H-indazol-3-yl)-4-(6-methoxy-5-(4-methyl-1H-imidazol-1-yl)pyridin-2-yl)thiazol-2-amine] and `COc1nc(-c2csc(Nc3c4c(nn3C3CCCC3)CCCC4)n2)ccc1-n1cnc(C)c1` [Compound 38, N-(2-cyclopentyl-4,5,6,7-tetrahydro-2H-indazol-3-yl)-4-(6-methoxy-5-(4-methyl-1H-imidazol-1-yl)pyridin-2-yl)thiazol-2-amine] are within 1.5-fold of each other in “Parent Aβ42 IC50” value: 280 nM for the first, 225 nM for the second.

`COc1nc(-c2csc(Nc3c4c(nn3C(C)(C)C)CCCC4)n2)ccc1-n1cnc(C)c1` [Compound 36, N-(2-(tert-butyl)-4,5,6,7-tetrahydro-2H-indazol-3-yl)-4-(6-methoxy-5-(4-methyl-1H-imidazol-1-yl)pyridin-2-yl)thiazol-2-amine] and `COc1nc(-c2csc(Nc3c4c(nn3C(C)(C)C)CCC4)n2)ccc1-n1cnc(C)c1` [Compound 66, N-(2-(tert-butyl)-2,4,5,6-tetrahydrocyclopenta[c]pyrazol-3-yl)-4-(6-methoxy-5-(4-methyl-1H-imidazol-1-yl)pyridin-2-yl)thiazol-2-amine] are within 1.5-fold of each other in “Parent Aβ42 IC50” value: 216 nM for the first, 175 nM for the second.

Going from `CCn1nc2c(c1Nc1nc(-c3ccc(-n4cnc(C)c4)c(OC)n3)cs1)CCCCC2` [Compound 73, N-(2-ethyl-2,4,5,6,7,8-hexahydrocyclohepta[c]pyrazol-3-yl)-4-(6-methoxy-5-(4-methyl-1H-imidazol-1-yl)pyridin-2-yl)thiazol-2-amine] to `COCCn1nc2c(c1Nc1nc(-c3ccc(-n4cnc(C)c4)c(OC)n3)cs1)CCCC2` [Compound 48, 4-(6-methoxy-5-(4-methyl-1H-imidazol-1-yl)pyridin-2-yl)-N-(2-(2-methoxyethyl)-4,5,6,7-tetrahydro-2H-indazol-3-yl)thiazol-2-amine], the “Parent Aβ42 IC50” value rises from 114 nM to 272 nM (2.4-fold).

Going from `COc1nc(-c2csc(Nc3cc(C(F)(F)F)nn3CC(F)(F)F)n2)ccc1-n1cnc(C)c1` [Compound 62, 4-(6-methoxy-5-(4-methyl-1H-imidazol-1-yl)pyridin-2-yl)-N-(1-(2,2,2-trifluoroethyl)-3-(trifluoromethyl)-1H-pyrazol-5-yl)thiazol-2-amine] to `COc1nc(-c2csc(Nc3cc(C(C)(C)C)nn3CC(F)(F)F)n2)ccc1-n1cnc(C)c1` [Compound 57, N-(3-(tert-butyl)-1-(2,2,2-trifluoroethyl)-1H-pyrazol-5-yl)-4-(6-methoxy-5-(4-methyl-1H-imidazol-1-yl)pyridin-2-yl)thiazol-2-amine], the “Parent Aβ42 IC50” value falls from 771 nM to 87 nM (8.9-fold).

First: COc1nc(-c2csc(Nc3c4c(nn3CC(F)(F)F)CCC4)n2)ccc1-n1cnc(C)c1 [Compound 69, 4-(6-methoxy-5-(4-methyl-1H-imidazol-1-yl)pyridin-2-yl)-N-(2-(2,2,2-trifluoroethyl)-2,4,5,6-tetrahydrocyclopenta[c]pyrazol-3-yl)thiazol-2-amine]
Second: COc1nc(-c2csc(Nc3c4c(nn3CC(F)(F)F)CCCC4)n2)ccc1-n1cnc(C)c1 [Compound 47, 4-(6-methoxy-5-(4-methyl-1H-imidazol-1-yl)pyridin-2-yl)-N-(2-(2,2,2-trifluoroethyl)-4,5,6,7-tetrahydro-2H-indazol-3-yl)thiazol-2-amine]
The “Parent Aβ42 IC50” value of the first is 1.9-fold lower: 94 nM for the first, 179 nM for the second.

Compared with `COc1nc(-c2csc(Nc3c4c(nn3CC(C)(C)O)CCCC4)n2)ccc1-n1cnc(C)c1` [Compound 51, 1-(3-((4-(6-methoxy-5-(4-methyl-1H-imidazol-1-yl)pyridin-2-yl)thiazol-2-yl)amino)-4,5,6,7-tetrahydro-2H-indazol-2-yl)-2-methylpropan-2-ol], `COc1nc(-c2csc(Nc3c4c(nn3CCCN3CCOCC3)CCCC4)n2)ccc1-n1cnc(C)c1` [Compound 45, 4-(6-methoxy-5-(4-methyl-1H-imidazol-1-yl)pyridin-2-yl)-N-(2-(3-morpholinopropyl)-4,5,6,7-tetrahydro-2H-indazol-3-yl)thiazol-2-amine] is 4.9-fold higher in “Parent Aβ42 IC50” value: 55 nM for the first, 270 nM for the second.

In the case of `CCn1nccc1Nc1nc(-c2ccc(-n3cnc(C)c3)c(OC)n2)cs1` [Compound 74, N-(1-ethyl-1H-pyrazol-5-yl)-4-(6-methoxy-5-(4-methyl-1H-imidazol-1-yl)pyridin-2-yl)thiazol-2-amine], the “Parent Aβ42 IC50” value was greater than 1000 nM.
For `COc1nc(-c2csc(Nc3c4c(nn3C3CCN(C)CC3)CCCC4)n2)ccc1-n1cnc(C)c1` [Compound 42, 4-(6-methoxy-5-(4-methyl-1H-imidazol-1-yl)pyridin-2-yl)-N-(2-(1-methylpiperidin-4-yl)-4,5,6,7-tetrahydro-2H-indazol-3-yl)thiazol-2-amine], the “Parent Aβ42 IC50” value was greater than 1000 nM.
In the case of `CCn1nc2c(c1N(C)c1nc(-c3ccc(-n4cnc(C)c4)c(OC)n3)cs1)CCCC2` [Compound 52, N-(2-ethyl-4,5,6,7-tetrahydro-2H-indazol-3-yl)-4-(6-methoxy-5-(4-methyl-1H-imidazol-1-yl)pyridin-2-yl)-N-methylthiazol-2-amine], the “Parent Aβ42 IC50” value was greater than 1000 nM.
For `COc1nc(-c2csc(Nc3c4c(nn3CCN3CCOCC3)CCCC4)n2)ccc1-n1cnc(C)c1` [Compound 44, 4-(6-methoxy-5-(4-methyl-1H-imidazol-1-yl)pyridin-2-yl)-N-(2-(2-morpholinoethyl)-4,5,6,7-tetrahydro-2H-indazol-3-yl)thiazol-2-amine trihydrochloride], the “Parent Aβ42 IC50” value was greater than 1000 nM.
For `COc1nc(-c2csc(Nc3c4c(nn3CCO)CCC4)n2)ccc1-n1cnc(C)c1` [Compound 70, 2-(3-((4-(6-methoxy-5-(4-methyl-1H-imidazol-1-yl)pyridin-2-yl)thiazol-2-yl)amino)-5,6-dihydrocyclopenta[c]pyrazol-2(4H)-yl)ethanol], the “Parent Aβ42 IC50” value was greater than 1000 nM.

Same assay, conditions: ratio of Aβ42 IC50 values

`CCn1nc(C(C)(C)C)cc1Nc1nc(-c2ccc(-n3cnc(C)c3)cc2)cs1` [Compound 33a] was tested, and the “Loss in activity (Aβ42) versus the parent fluorophenyl compound” value was “greater than 2 fold”.
For `Cc1cn(-c2ccc(-c3csc(Nc4c5c(nn4C)CCCC5)n3)cc2)cn1` [Compound 31a], the “Loss in activity (Aβ42) versus the parent fluorophenyl compound” value was “greater than 2 fold”.
In the case of `CCn1nc2c(c1Nc1nc(-c3ccc(-n4cnc(C)c4)cc3)cs1)CCCC2` [Compound 22a], the “Loss in activity (Aβ42) versus the parent fluorophenyl compound” value was “greater than 4 fold”.
